Our source for the Ki and IC50 values is patent US7504420B2, “Compounds which inhibit beta-secretase activity and methods of use” (CoMentis, Inc., priority 2005, dated 2009).

For one experiment, the target named is memapsin 2 (Homo sapiens, UniProt P56817). The experiment in a line: Inhibition of memapsin 2 catalytic activity (Ki). It counts as biochemical. The conditions noted are these: memapsin 2, pH 4, 37° C.; read-out: M2K. The method in brief:
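Run at 37 °C and pH 4: compound and enzyme pre-incubated 20 min before FS-2 fluorogenic substrate started hydrolysis,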

The target of a further experiment is cathepsin D (Homo sapiens, UniProt P07339). The experiment in a line: Inhibition of cathepsin D catalytic activity (Ki). In kind it is biochemical. To be noted: pH 4.0, 37° C., read-out: CDK.
The next experiment concerns the target T1, memapsin 1 (Homo sapiens, UniProt Q9Y5Z0).
T1 sequence (Q9Y5Z0 63-518): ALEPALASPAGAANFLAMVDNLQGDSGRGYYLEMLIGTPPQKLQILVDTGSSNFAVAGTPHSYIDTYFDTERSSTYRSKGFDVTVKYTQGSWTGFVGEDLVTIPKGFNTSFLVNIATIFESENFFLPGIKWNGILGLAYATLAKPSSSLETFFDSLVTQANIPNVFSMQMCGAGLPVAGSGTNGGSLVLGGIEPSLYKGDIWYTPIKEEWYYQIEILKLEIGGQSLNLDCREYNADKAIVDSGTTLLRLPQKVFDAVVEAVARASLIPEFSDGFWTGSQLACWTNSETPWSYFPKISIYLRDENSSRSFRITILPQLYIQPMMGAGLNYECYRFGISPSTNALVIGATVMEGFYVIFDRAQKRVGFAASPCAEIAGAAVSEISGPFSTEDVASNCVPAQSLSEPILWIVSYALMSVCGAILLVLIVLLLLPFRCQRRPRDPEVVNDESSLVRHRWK
The experiment in a line: Inhibition of memapsin 1 catalytic activity (Ki). It counts as biochemical. To be noted: memapsin 1, pH 4.0, 37° C.; read-out: M1K. The procedure: A substrate peptide NH3-ELDLAVEFWHDR-CO2 (SEQ ID NO.:1) (used for inhibition assay of memapsin 2, memapsin 1, and cathepsin D) was dissolved at 2 mg/ml in DMSO and diluted 1:100 in 0.1 M sodium acetate, pH 4.0 just prior to assay. Inhibitor dissolved in DMSO was diluted into 0.1 M sodium acetate, pH 4.0 (1:100 dilution). A […] aliquot of the inhibitor solution in pH 4 buffer was combined with […] of 0.1 M sodium acetate containing 100-200 nM of memapsin 1, memapsin 2, or cathepsin D. Following a pre-incubation at 37° C., the proteolytic assay was initated by addition of […] of the substrate diluted into pH 4 buffer, and incubation continued at 37° C. Aliquots were removed at time intervals, and combined with an equal volume of MALDI-TOF matrix (α-hydroxycinnamic acid in acetone, 20 mg/ml) and immediately spotted in duplicate onto a stainless-steel MALDI sample plate. MALDI-TOF mass spectrometry was performed on a PE Biosystems Voyager DE instrument at the Molecular Biology Resource Center on campus. The instrument was operated at 25,000 accelerating volts in positive mode with a 150 ns delay. Ions with a mass-to-charge ratio (m/z) were detected in the range of 650-2000 atomic mass units. Data were analyzed by the Voyager Data Explorer module to obtain ion intensity data for mass species of substrates and corresponding products in a given mixture. Relative product formation was calculated as the ratio of signal intensity of the product to the sum of signal intensities of both product and the corresponding substrate. Relative product formed per unit time was obtained from non-linear regression analysis of the data representing the initial 15% formation of product using the model: 1−e^−kT, where k was the relative hydrolytic rate constant and T was time in seconds. Alternatively, relative hydrolytic rates were determined using a fluorogenic cleavage assay (Ermolieff, J. et al., Biochemistry, 39: 12450-12456 (2000)). Initial rates from either method were expressed relative to uninhibited controls and the inhibition constant Ki was determined by a non-linear fit to a tight-binding model of competitive inhibition (Bieth, J., Bayer-Symposium V: Proteinase Inhibitors, pp 463-469, Spinger-Varlag, Berlin (1994)). Results are shown in Table 1 above (M2K, CDK, and M1K columns represent, respectively, the K1 values obtained for memapsin 2, cathepsin D and memapsin 1).

Experiment [1] concerns Aβ production in Chinese hamster ovary cells that over-express human APP695 with the London and Swedish mutations. The experiment in a line: Cellular Aβ IC50 determination (Aβ40 sandwich ELISA). To be noted: Cricetulus griseus, CHO, 24 h, read-out: Cell, Aβ40, CHO cells over-expressing human APP695 (London and Swedish mutations), 24 h. (ELISA stands for enzyme-linked immunosorbent assay.)

Some results are limits rather than exact numbers.

Chain of cathepsin D (P07339 65-412, species assumed): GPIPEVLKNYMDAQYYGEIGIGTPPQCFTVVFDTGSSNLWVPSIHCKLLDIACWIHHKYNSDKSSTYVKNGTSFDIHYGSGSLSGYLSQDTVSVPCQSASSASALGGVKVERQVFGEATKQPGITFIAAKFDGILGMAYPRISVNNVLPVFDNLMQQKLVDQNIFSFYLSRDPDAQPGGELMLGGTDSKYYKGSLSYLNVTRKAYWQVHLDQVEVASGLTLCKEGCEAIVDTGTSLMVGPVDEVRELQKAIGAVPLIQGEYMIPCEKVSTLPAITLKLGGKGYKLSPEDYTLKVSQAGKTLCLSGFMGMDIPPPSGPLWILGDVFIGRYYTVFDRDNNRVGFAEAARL
Chain of memapsin 2 (P56817 46-501): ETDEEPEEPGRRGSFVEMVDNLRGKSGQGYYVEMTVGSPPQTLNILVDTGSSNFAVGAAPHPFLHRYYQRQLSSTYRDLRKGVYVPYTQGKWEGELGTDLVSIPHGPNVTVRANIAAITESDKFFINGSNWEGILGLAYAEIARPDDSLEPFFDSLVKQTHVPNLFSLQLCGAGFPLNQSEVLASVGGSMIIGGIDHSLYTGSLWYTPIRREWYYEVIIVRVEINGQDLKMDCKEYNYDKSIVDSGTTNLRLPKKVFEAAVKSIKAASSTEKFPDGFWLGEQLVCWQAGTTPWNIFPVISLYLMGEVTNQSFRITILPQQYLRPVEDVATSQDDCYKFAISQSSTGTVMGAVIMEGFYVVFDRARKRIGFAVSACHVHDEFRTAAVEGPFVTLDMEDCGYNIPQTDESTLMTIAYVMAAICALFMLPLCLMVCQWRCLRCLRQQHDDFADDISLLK

Regarding `Cc1csc(CN(C)C(=O)c2cccc(C(=O)NC(Cc3ccccc3)C(O)CNCc3cccc(C(F)(F)F)c3)c2)n1` (stereo not shown) [N1-(3-hydroxy-1-phenyl-4-(3-(trifluoromethyl)benzylamino)butan-2-yl)-N3-methyl-N3-((4-methylthiazol-2-yl)methyl)isophthalamide], the values for the Ki on memapsin 2, at cathepsin D and at memapsin 1 were less than 300 nM, less than 300 nM and greater than 501 nM, respectively. The IC50 in experiment [1] was less than 1000 nM.
As for `COc1cccc(CNCC(O)C(Cc2ccccc2)NC(=O)c2cccc(C(=O)N(C)Cc3cc(C)no3)c2)c1` (stereo not shown) [N1-(3-hydroxy-4-(3-methoxybenzylamino)-1-phenylbutan-2-yl)-N3-methyl-N3-((3-methylisoxazol-5-yl)methyl)isophthalamide], the results for the Ki on memapsin 2, at cathepsin D and on memapsin 1 were greater than 501 nM, less than 300 nM and greater than 501 nM, respectively. Moreover, the IC50 in experiment [1] was greater than 5000 nM.
As to `COc1cccc(CNCC(O)C(Cc2ccccc2)NC(=O)c2cc(C(=O)NCc3nc(C)oc3C)cc(N(C)S(C)(=O)=O)c2)c1` (stereo not shown) [N1-((2,5-dimethyloxazol-4-yl)methyl)-N3-(3-hydroxy-4-(3-methoxybenzylamino)-1-phenylbutan-2-yl)-5-(N-methylmethylsulfonamido)isophthalamide], the Ki at memapsin 2, on cathepsin D and at memapsin 1 was greater than 501 nM in each case. Further, the IC50 in experiment [1] fell in the range of 1000 to 5000 nM.
For the compound `CCN(c1cc(C(=O)NC(C)c2ccccc2)cc(C(=O)NC(Cc2ccccc2)C(O)CNCc2cccc(OC)c2)c1)S(C)(=O)=O` (stereo not shown) [5-(N-ethylmethylsulfonamido)-N1-(3-hydroxy-4-(3-methoxybenzylamino)-1-phenylbutan-2-yl)-N3-(1-phenylethyl)isophthalamide], the figures for the Ki on memapsin 2, on cathepsin D and at memapsin 1 were 301 to 500 nM, less than 300 nM and less than 300 nM, respectively. Moreover, in experiment [1], the IC50 was less than 1000 nM.
On to `CC(NC(=O)c1cc(C(=O)NC(Cc2ccccc2)C(O)CNCc2cc(F)cc(F)c2)cc(N(C)S(C)(=O)=O)c1)c1ccccc1` (stereo not shown) [N1-(4-(3,5-difluorobenzylamino)-3-hydroxy-1-phenylbutan-2-yl)-5-(N-methylmethylsulfonamido)-N3-(1-phenylethyl)isophthalamide], for which the Ki on memapsin 2 was less than 300 nM; at cathepsin D, less than 300 nM; at memapsin 1, greater than 501 nM. The IC50 in experiment [1] is less than 1000 nM.
Take `Cc1csc(CNCC(O)C(Cc2ccccc2)NC(=O)c2cc(C(=O)NC(C)c3ccccc3)cc(N(C)S(C)(=O)=O)c2)n1` (stereo not shown) [N1-(3-hydroxy-4-((4-methylthiazol-2-yl)methylamino)-1-phenylbutan-2-yl)-5-(N-methylmethylsulfonamido)-N3-(1-phenylethyl)isophthalamide]: the Ki was less than 300 nM at memapsin 2, 301 to 500 nM on cathepsin D and greater than 501 nM on memapsin 1. In addition, in experiment [1], the IC50 is less than 1000 nM.
The matching figures for `Cc1cccc(CNCC(O)C(Cc2ccccc2)NC(=O)c2cc(C(=O)NC(C)c3ccccc3)cc(N(C)S(C)(=O)=O)c2)n1` (stereo not shown) [N1-(3-hydroxy-4-((6-methylpyridin-2-yl)methylamino)-1-phenylbutan-2-yl)-5-(N-methylmethylsulfonamido)-N3-(1-phenylethyl)isophthalamide]: 301 to 500 nM, greater than 501 nM, 301 to 500 nM and less than 1000 nM.
The matching figures for `Cc1cccc(CNCC(O)C(Cc2ccccc2)NC(=O)c2cccc(C(=O)N(C)Cc3nc(C)cs3)c2)c1` (stereo not shown) [N1-(3-hydroxy-4-(3-methylbenzylamino)-1-phenylbutan-2-yl)-N3-methyl-N3-((4-methylthiazol-2-yl)methyl)isophthalamide]: greater than 501 nM, less than 300 nM, greater than 501 nM and less than 1000 nM.
For the compound `COc1cccc(CNCC(O)C(Cc2ccccc2)NC(=O)c2cc(C(=O)NCC3COC4OCCC34)cc(N(C)S(C)(=O)=O)c2)c1` (stereo not shown) [N1-((hexahydrofuro[2,3-b]furan-3-yl)methyl)-N3-(3-hydroxy-4-(3-methoxybenzylamino)-1-phenylbutan-2-yl)-5-(N-methylmethylsulfonamido)isophthalamide], the Ki was 301 to 500 nM at memapsin 2, 301 to 500 nM at cathepsin D and greater than 501 nM at memapsin 1. For the same compound, in experiment [1], the IC50 was greater than 5000 nM.
With `COc1cccc(CNCC(O)C(Cc2ccccc2)NC(=O)c2cc(C(=O)NN(C)c3ccccc3)cc(N(C)S(C)(=O)=O)c2)c1` (stereo not shown) [N-(3-hydroxy-4-(3-methoxybenzylamino)-1-phenylbutan-2-yl)-3-(2-methyl-2-phenylhydrazinecarbonyl)-5-(N-methylmethylsulfonamido)benzamide], the Ki was less than 300 nM at memapsin 2, less than 300 nM on cathepsin D and greater than 501 nM at memapsin 1. The IC50 in experiment [1] is less than 1000 nM.
Turning to `COc1cccc(CNCC(O)C(Cc2ccccc2)NC(=O)c2cc(C(=O)NC(C)c3ccccc3)cc([N+](=O)[O-])c2)c1` (stereo not shown) [N1-(3-hydroxy-4-(3-methoxybenzylamino)-1-phenylbutan-2-yl)-5-nitro-N3-(1-phenylethyl)isophthalamide], the Ki was 301 to 500 nM on memapsin 2, less than 300 nM on cathepsin D and less than 300 nM on memapsin 1. Also, the IC50 in experiment [1] is less than 1000 nM.
On to `COc1cccc(CNCC(O)C(Cc2ccccc2)NC(=O)c2cc(C(=O)NCc3ccccc3)cc(N(C)S(C)(=O)=O)c2)c1` (stereo not shown) [N1-benzyl-N3-(3-hydroxy-4-(3-methoxybenzylamino)-1-phenylbutan-2-yl)-5-(N-methylmethylsulfonamido)isophthalamide], for which the Ki was less than 300 nM on memapsin 2, less than 300 nM on cathepsin D and greater than 501 nM on memapsin 1. Moreover, the IC50 in experiment [1] was less than 1000 nM.
With `COc1cccc(CNCC(O)C(Cc2ccccc2)NC(=O)c2cc(C(=O)NC(C)c3cccnc3)cc(N(C)S(C)(=O)=O)c2)c1` (stereo not shown) [N1-(3-hydroxy-4-(3-methoxybenzylamino)-1-phenylbutan-2-yl)-5-(N-methylmethylsulfonamido)-N3-(1-(pyridin-3-yl)ethyl)isophthalamide], the figures for the Ki at memapsin 2, at cathepsin D and on memapsin 1 were less than 300 nM, greater than 501 nM and greater than 501 nM, respectively. The IC50 in experiment [1] was less than 1000 nM.
For `CC(NC(=O)c1cc(C(=O)NC(Cc2ccccc2)C(O)CNCc2cccc(F)c2)cc(N(C)S(C)(=O)=O)c1)c1ccccc1` (stereo not shown) [N1-(4-(3-fluorobenzylamino)-3-hydroxy-1-phenylbutan-2-yl)-5-(N-methylmethylsulfonamido)-N3-(1-phenylethyl)isophthalamide], the Ki is less than 300 nM at memapsin 2, 301 to 500 nM at cathepsin D and greater than 501 nM on memapsin 1. In addition, the IC50 in experiment [1] was less than 1000 nM.
Turning to `CCC(NCC(O)C(Cc1ccccc1)NC(=O)c1cccc(C(=O)N(C)Cc2nc(C)cs2)c1)c1ccccc1` (stereo not shown) [N1-(3-hydroxy-1-phenyl-4-(1-phenylpropylamino)butan-2-yl)-N3-methyl-N3-((4-methylthiazol-2-yl)methyl)isophthalamide], the Ki was greater than 501 nM on memapsin 2, less than 300 nM at cathepsin D and greater than 501 nM at memapsin 1. Moreover, the IC50 in experiment [1] was 1000 to 5000 nM.
For `CCC(NCC(O)C(Cc1ccccc1)NC(=O)c1cc(C(=O)NC(C)c2ccccc2)cc(N(C)S(C)(=O)=O)c1)c1ccccc1` (stereo not shown) [N1-(3-hydroxy-1-phenyl-4-(1-phenylpropylamino)butan-2-yl)-5-(N-methylmethylsulfonamido)-N3-(1-phenylethyl)isophthalamide], the Ki at memapsin 2, on cathepsin D and at memapsin 1 was less than 300 nM each time. In addition, in experiment [1], the IC50 is less than 1000 nM.
